Like-named read-outs stand apart in the source and are kept apart here.
What was measured:
[1] = tested on: 3D7-MR4 trophozoite parasite-infected RBCs; experiment: Metabolomic profiling (hydrophilic metabolite changes, UHPLC-MS); assay type: cell-based, Plasmodium falciparum
[2] = tested on: Plasmodium falciparum 3D7-A10 parasites; experiment: Stage specificity assay (8-h exposure of synchronized stages, IC50^8h); assay type: cell-based; conditions: Plasmodium falciparum
[3] = tested on: asynchronous 3D7-A10 parasite cultures; experiment: Standard 72-h exposure asexual blood stage susceptibility assay (IC50^72h); assay type: cell-based, Plasmodium falciparum; conditions: Plasmodium falciparum, 3D7, 72 h, read-out: Overall (72hr assay) Mean IC50 (IC50^72h)

`COc1ccc(C2c3ccc4ccccc4c3Oc3ncn(CCCN(C)C)c(=N)c32)cc1` (centres unmarked) [MMV667491] was tested. Which “peptide levels (hemoglobin catabolism signature)” value ([1]; 10 × IC50^72h, 2.5 hr, trophozoites) did it give?
The value was “decreased peptide levels”.

And the “Log2(fold changes) 3-phosphoglycerate” value ([1]; metabolite 3-phosphoglycerate, log2 fold change)?
Its value is 0.2589.

And the “Log2(fold changes) 4-Pyridoxic acid” value ([1]; metabolite 4-Pyridoxic acid, log2 fold change)?
Its value is 0.1545.

What about the “Log2(fold changes) 4-aminobutyrate” value ([1]; metabolite 4-aminobutyrate, log2 fold change) of the same compound?
Its value is -0.0143.

And the “Log2(fold changes) 4-phosphopantetheine” value ([1]; metabolite 4-phosphopantetheine, log2 fold change)?
Its value is 0.0000.

And the “Log2(fold changes) 4-phosphopantothenate” value ([1]; metabolite 4-phosphopantothenate, log2 fold change)?
The value was -0.5959.

What about the “Log2(fold changes) 5-aminopentanoic acid” value ([1]; metabolite 5-aminopentanoic acid, log2 fold change) of the same compound?
The value was 0.0000.

What about the “Log2(fold changes) 5-methyl-THF” value ([1]; metabolite 5-methyl-THF, log2 fold change) of the same compound?
The value was 0.0000.

And the “Log2(fold changes) 5-phosphoribosyl-1-pyrophosphate” value ([1]; metabolite 5-phosphoribosyl-1-pyrophosphate, log2 fold change)?
The value was 0.0000.

And the “Log2(fold changes) 6-phospho-D-gluconate” value ([1]; metabolite 6-phospho-D-gluconate, log2 fold change)?
The value was -0.3071.

What about the “Log2(fold change) HVDD” value ([1]; metabolite HVDD) of the same compound?
The value was -3.1004.

What about the “Log2(fold change) Hydroxyisocaproic acid” value ([1]; metabolite Hydroxyisocaproic acid) of the same compound?
The value was 0.0000.

And the “Log2(fold change) IDP” value ([1]; metabolite IDP)?
The value was 0.0000.

What about the “Log2(fold change) IMP” value ([1]; metabolite IMP) of the same compound?
The value was -0.4029.

And the “Log2(fold change) Inositol” value ([1]; metabolite Inositol)?
The value was 0.0000.

What about the “Log2(fold change) Isopentyl-PP” value ([1]; metabolite Isopentyl-PP) of the same compound?
Its value is -0.4741.

And the “Log2(fold change) L-arginino-succinate” value ([1]; metabolite L-arginino-succinate)?
The value was 1.0249.

And the “Log2(fold change) LD” value ([1]; metabolite LD)?
Its value is 0.5039.

And the “Log2(fold change) Myristoyl/tetradecanoyl-CoA” value ([1]; metabolite Myristoyl/tetradecanoyl-CoA)?
Its value is 0.0000.

What about the “Log2(fold change) N-Acetyl-L-alanine” value ([1]; metabolite N-Acetyl-L-alanine) of the same compound?
The value was -0.5066.

And the “Log2(fold change) N-acetyl-L-ornithine” value ([1]; metabolite N-acetyl-L-ornithine)?
The value was -0.0359.

What about the “Log2(fold change) N-acetyl-glucosamine-1/6-phosphate” value ([1]; metabolite N-acetyl-glucosamine-1/6-phosphate) of the same compound?
Its value is -0.2210.

And the “Log2(fold change) N-acetyl-glutamate” value ([1]; metabolite N-acetyl-glutamate)?
Its value is -0.3035.

And the “Log2(fold change) N-acetyl-glutamine” value ([1]; metabolite N-acetyl-glutamine)?
Its value is 2.2691.

And the “Log2(fold change) N-carbamoyl-L-aspartate” value ([1]; metabolite N-carbamoyl-L-aspartate)?
Its value is -0.9439.

And the “Log2(fold change) NAD+” value ([1]; metabolite NAD+)?
Its value is -0.1377.

What about the “Log2(fold change) NADH” value ([1]; metabolite NADH) of the same compound?
Its value is 0.2776.

What about the “Log2(fold change) NADP+” value ([1]; metabolite NADP+) of the same compound?
The value was 0.1452.

What about the “Log2(fold change) NADPH” value ([1]; metabolite NADPH) of the same compound?
The value was 0.1884.

And the “Log2(fold change) O-acetyl-L-serine” value ([1]; metabolite O-acetyl-L-serine)?
Its value is -0.0049.

And the “Log2(fold change) Octoluse 8/1P” value ([1]; metabolite Octoluse 8/1P)?
Its value is 0.3908.

And the “Log2(fold change) Octoluse Bisphosphate” value ([1]; metabolite Octoluse Bisphosphate)?
Its value is 1.4853.

What about the “Log2(fold change) PD” value ([1]; metabolite PD) of the same compound?
Its value is -2.5358.

And the “Log2(fold change) PE” value ([1]; metabolite PE)?
Its value is -0.3826.

What about the “Log2(fold change) PEE” value ([1]; metabolite PEE) of the same compound?
Its value is -0.0417.

And the “Log2(fold change) PEEK” value ([1]; metabolite PEEK)?
Its value is 0.3987.

And the “Log2(fold change) PVNF” value ([1]; metabolite PVNF)?
Its value is -3.7257.

And the “Log2(fold change) Pyroglutamic acid” value ([1]; metabolite Pyroglutamic acid)?
The value was -0.2992.

What about the “Log2(fold change) Pyrophosphate” value ([1]; metabolite Pyrophosphate) of the same compound?
The value was 0.0000.

And the “Log2(fold change) Ribose-5-phosphate” value ([1]; metabolite Ribose-5-phosphate)?
The value was -0.2620.

What about the “Log2(fold change) S-adenosyl-L-homocysteine” value ([1]; metabolite S-adenosyl-L-homocysteine) of the same compound?
The value was 0.0103.

What about the “Log2(fold change) S-adenosyl-L-methioninamine” value ([1]; metabolite S-adenosyl-L-methioninamine) of the same compound?
The value was -2.2715.

What about the “Log2(fold change) S-adenosyl-L-methionine” value ([1]; metabolite S-adenosyl-L-methionine) of the same compound?
The value was 0.0000.

And the “Log2(fold change) S-methyl-5'-thioadenosine” value ([1]; metabolite S-methyl-5'-thioadenosine)?
The value was 1.0471.

What about the “Log2(fold change) SD” value ([1]; metabolite SD) of the same compound?
The value was -1.2290.

What about the “Log2(fold change) SDL” value ([1]; metabolite SDL) of the same compound?
Its value is 0.0000.

What about the “Log2(fold change) SID” value ([1]; metabolite SID) of the same compound?
Its value is -0.4398.

And the “Log2(fold change) Sedoheptulose bisphosphate” value ([1]; metabolite Sedoheptulose bisphosphate)?
Its value is 1.3696.

And the “Log2(fold change) Thiamine pyrophosphate” value ([1]; metabolite Thiamine pyrophosphate)?
Its value is -0.0845.

What about the “Log2(fold changes) UDP-D-glucose” value ([1]; metabolite UDP-D-glucose, log2 fold change) of the same compound?
The value was 0.2535.

And the “Log2(fold changes) UDP-D-glucuronate” value ([1]; metabolite UDP-D-glucuronate, log2 fold change)?
Its value is 0.0929.

And the “Log2(fold changes) UDP-N-acetyl-glucosamine” value ([1]; metabolite UDP-N-acetyl-glucosamine, log2 fold change)?
Its value is -0.0110.

And the “Log2(fold changes) UDP” value ([1]; metabolite UDP, log2 fold change)?
Its value is -0.5582.

And the “Log2(fold changes) UMP” value ([1]; metabolite UMP, log2 fold change)?
Its value is -1.0091.

And the “Log2(fold changes) UTP” value ([1]; metabolite UTP, log2 fold change)?
Its value is 0.0000.

What about the “Log2(fold change) hydroxyphenylpyruvate” value ([1]; metabolite hydroxyphenylpyruvate) of the same compound?
Its value is 0.0000.

What about the “Log2(fold change) hydroxyproline/Aminolevulinate” value ([1]; metabolite hydroxyproline/Aminolevulinate) of the same compound?
Its value is -0.0313.

And the “Log2(fold change) hypoxanthine” value ([1]; metabolite hypoxanthine)?
Its value is 0.1226.

And the “Log2(fold change) indole” value ([1]; metabolite indole)?
The value was 0.0000.

And the “Log2(fold change) inosine” value ([1]; metabolite inosine)?
Its value is 0.0977.

What about the “Log2(fold change) isoleucine” value ([1]; metabolite isoleucine) of the same compound?
Its value is 0.0000.

And the “Log2(fold change) lactate” value ([1]; metabolite lactate)?
Its value is -0.2958.

And the “Log2(fold change) leucine” value ([1]; metabolite leucine)?
Its value is 0.0000.

And the “Log2(fold change) lysine” value ([1]; metabolite lysine)?
The value was -0.5255.

What about the “Log2(fold change) malate” value ([1]; metabolite malate) of the same compound?
The value was -0.2587.

What about the “Log2(fold change) maleic acid” value ([1]; metabolite maleic acid) of the same compound?
The value was -0.3091.

And the “Log2(fold change) methionine” value ([1]; metabolite methionine)?
Its value is 0.3155.

What about the “Log2(fold change) myo-inositol” value ([1]; metabolite myo-inositol) of the same compound?
The value was -0.2765.

What about the “Log2(fold change) nicotinamide mononucleotide” value ([1]; metabolite nicotinamide mononucleotide) of the same compound?
Its value is -0.3204.

What about the “Log2(fold change) nicotinate” value ([1]; metabolite nicotinate) of the same compound?
The value was -0.1938.

And the “Log2(fold change) ornithine” value ([1]; metabolite ornithine)?
The value was 0.1211.

What about the “Log2(fold change) orotate” value ([1]; metabolite orotate) of the same compound?
The value was -0.0965.

And the “Log2(fold change) orotidine-5'-phosphate” value ([1]; metabolite orotidine-5'-phosphate)?
Its value is -2.6245.

And the “Log2(fold change) oxaloacetate” value ([1]; metabolite oxaloacetate)?
The value was -0.0776.

What about the “Log2(fold change) p-aminobenzoate” value ([1]; metabolite p-aminobenzoate) of the same compound?
Its value is 0.0000.

What about the “Log2(fold change) p-hydroxybenzoate” value ([1]; metabolite p-hydroxybenzoate) of the same compound?
Its value is 0.0000.

And the “Log2(fold change) pantothenate” value ([1]; metabolite pantothenate)?
Its value is 0.1007.

What about the “Log2(fold change) phenylalanine” value ([1]; metabolite phenylalanine) of the same compound?
The value was -0.2555.

What about the “Log2(fold change) phenylpyruvate” value ([1]; metabolite phenylpyruvate) of the same compound?
The value was 0.0000.

What about the “Log2(fold change) phosphoenolpyruvate” value ([1]; metabolite phosphoenolpyruvate) of the same compound?
Its value is 0.7161.

And the “Log2(fold change) prephenate” value ([1]; metabolite prephenate)?
Its value is -0.9019.

And the “Log2(fold change) proline” value ([1]; metabolite proline)?
The value was -0.2246.

What about the “Log2(fold change) pyridoxine” value ([1]; metabolite pyridoxine) of the same compound?
Its value is -0.1003.

What about the “Log2(fold change) pyruvate” value ([1]; metabolite pyruvate) of the same compound?
The value was -0.3220.

And the “Log2(fold change) riboflavin” value ([1]; metabolite riboflavin)?
The value was 0.6538.

What about the “Log2(fold change) ribose” value ([1]; metabolite ribose) of the same compound?
Its value is 0.3285.

What about the “Log2(fold change) ribose-phosphate” value ([1]; metabolite ribose-phosphate) of the same compound?
Its value is -0.4272.

What about the “Log2(fold change) ribulose-5-phosphate” value ([1]; metabolite ribulose-5-phosphate) of the same compound?
Its value is -0.4317.

What about the “Log2(fold change) serine” value ([1]; metabolite serine) of the same compound?
The value was 0.1307.

And the “Log2(fold change) sn-glycerol-3-phosphate” value ([1]; metabolite sn-glycerol-3-phosphate)?
Its value is 0.0813.

And the “Log2(fold change) succinate/Methylmalonic acid” value ([1]; metabolite succinate/Methylmalonic acid)?
Its value is -0.0916.

And the “Log2(fold change) succinyl-CoA/methylmalonyl-CoA” value ([1]; metabolite succinyl-CoA/methylmalonyl-CoA)?
The value was 0.0000.

What about the “Log2(fold change) taurine” value ([1]; metabolite taurine) of the same compound?
Its value is 0.1233.

And the “Log2(fold change) thiamine” value ([1]; metabolite thiamine)?
The value was -0.6378.

And the “Log2(fold change) threonine/homoserine” value ([1]; metabolite threonine/homoserine)?
The value was -0.0132.

And the “Log2(fold change) thymidine” value ([1]; metabolite thymidine)?
Its value is 0.0000.

What about the “Log2(fold changes) thymine” value ([1]; metabolite thymine, log2 fold change) of the same compound?
The value was 0.0000.

What about the “Log2(fold changes) trehalose-6-Phosphate” value ([1]; metabolite trehalose-6-Phosphate, log2 fold change) of the same compound?
Its value is 0.0000.

What about the “Log2(fold changes) tryptophan” value ([1]; metabolite tryptophan, log2 fold change) of the same compound?
Its value is -0.6838.

What about the “Log2(fold changes) tyrosine” value ([1]; metabolite tyrosine, log2 fold change) of the same compound?
Its value is 0.0515.

And the “Log2(fold changes) uridine” value ([1]; metabolite uridine, log2 fold change)?
The value was 0.0000.

And the IC50 ([2]; 3D7, read-out: Early rings Mean IC50 (IC50^8h), 8-h exposure 0–8 hr, 3D7-A10, survival at 60 h)?
Its IC50 is 2260 nM.

What about the IC50 ([2]; 3D7, read-out: Early trophozoites Mean IC50 (IC50^8h), 8-h exposure 16–24 hr, 3D7-A10, survival at 60 h) of the same compound?
The IC50 was 521 nM.

And the IC50 ([2]; 3D7, read-out: Late rings Mean IC50 (IC50^8h), 8-h exposure 8–16 hr, 3D7-A10, survival at 60 h)?
The IC50 was 1270 nM.

And the IC50 ([2]; 3D7, read-out: Late trophozoites Mean IC50 (IC50^8h), 8-h exposure 24–32 hr, 3D7-A10, survival at 60 h)?
Its IC50 is 731 nM.

And the IC50 ([2]; 3D7, read-out: Schizonts Mean IC50 (IC50^8h), 8-h exposure 32–40 hr, 3D7-A10, survival at 60 h)?
Its IC50 is 842 nM.

And the IC50 [3]?
Its IC50 is 243 nM.

Source: publication PMC7031696 (Cell chemical biology, 2019)
